In ChEMBL document CHEMBL1201862, “PubChem BioAssay data set” (2004):
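Briefly, cells in 96-well plates were exposed to five compound concentrations for 48 h, and endpoints were estimated by linear interpolation. GI50 is the concentration that inhibits growth by half.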 The source made the active and inactive calls. Cut-off read from the data, not from the text of the source: active = GI50 up to about 1.1 µM and inactive = higher.

How the values were obtained:
Experiment in all cases: DTP human tumour cell line panel, 48 h
SK-MEL-2 = tested on: SK-MEL-2
UO-31 = tested on: UO-31
MDA-MB-435 = tested on: MDA-MB-435
HCT-116 = tested on: HCT-116
OVCAR-8 = tested on: OVCAR-8
CAKI-1 = tested on: CAKI-1
SK-MEL-28 = tested on: SK-MEL-28
CCRF-CEM = tested on: CCRF-CEM
Malme-3M = tested on: Malme-3M
BT-549 = tested on: BT-549
MCF7 = tested on: MCF7
SN12C = tested on: SN12C
ACHN = tested on: ACHN
IGROV-1 = tested on: IGROV-1
NCI-H23 = tested on: NCI-H23
RXF 393 = tested on: RXF 393
SNB-75 = tested on: SNB-75
OVCAR-5 = tested on: OVCAR-5
HCC 2998 = tested on: HCC 2998
LOX IMVI = tested on: LOX IMVI

Measured: GI50

C=CC(O)(CBr)CCC(Br)C(C)(C)Cl (configuration not stated)
inactive: SK-MEL-2 > 10 µM | UO-31 > 10 µM | MDA-MB-435 > 10 µM | HCT-116 > 10 µM | OVCAR-8 > 10 µM | CAKI-1 > 10 µM | SK-MEL-28 > 10 µM | CCRF-CEM > 10 µM | Malme-3M > 10 µM | BT-549 > 10 µM | MCF7 > 10 µM | SN12C > 10 µM | ACHN > 10 µM | IGROV-1 > 10 µM | NCI-H23 > 10 µM | RXF 393 > 10 µM | SNB-75 > 10 µM | OVCAR-5 > 10 µM | HCC 2998 > 10 µM

Fc1ccc(/C=C2\COCC3=C2NC(=S)NC3c2ccc(F)cc2)cc1 (configuration not stated)
inactive: SK-MEL-2 15 µM | UO-31 17.7 µM | MDA-MB-435 18.8 µM | HCT-116 17.3 µM | OVCAR-8 15.2 µM | CAKI-1 31.1 µM | CCRF-CEM 19 µM | BT-549 19 µM | MCF7 19.1 µM | SN12C 18.5 µM | LOX IMVI 19.9 µM | ACHN 37 µM | IGROV-1 24.9 µM | NCI-H23 20.6 µM | RXF 393 16.6 µM | SNB-75 22.2 µM | OVCAR-5 21.1 µM | HCC 2998 18.5 µM

CC(C)(C)c1cc2c(O)c(c1)C(c1ccccc1)c1cc(C(C)(C)C)cc(c1O)Cc1cc(C(C)(C)C)cc(c1O)C(c1ccccc1)c1cc(C(C)(C)C)cc(c1O)C2 (configuration not stated)
inactive: SK-MEL-2 > 100 µM | UO-31 > 100 µM | MDA-MB-435 > 100 µM | HCT-116 > 100 µM | OVCAR-8 > 100 µM | CAKI-1 > 100 µM | SK-MEL-28 > 100 µM | CCRF-CEM 44.9 µM | BT-549 > 100 µM | MCF7 > 100 µM | SN12C > 100 µM | LOX IMVI > 100 µM | ACHN > 100 µM | IGROV-1 > 100 µM | NCI-H23 > 100 µM | RXF 393 > 100 µM | OVCAR-5 > 100 µM | HCC 2998 > 100 µM

OCCN(CCO)c1ccc2c(-c3ccccc3)cc(N(CCO)CCO)nc2n1
inactive: SK-MEL-2 > 100 µM | UO-31 > 100 µM | MDA-MB-435 > 100 µM | HCT-116 > 100 µM | OVCAR-8 > 100 µM | CAKI-1 > 100 µM | SK-MEL-28 > 100 µM | CCRF-CEM > 100 µM | Malme-3M > 100 µM | BT-549 > 100 µM | MCF7 > 100 µM | SN12C > 100 µM | ACHN > 100 µM | IGROV-1 > 100 µM | NCI-H23 > 100 µM | RXF 393 > 100 µM | SNB-75 > 100 µM | OVCAR-5 > 100 µM | HCC 2998 > 100 µM

O=C(Nc1nnc(-c2ccccc2)o1)C(SC(=S)N1CCOCC1)c1ccccc1 (configuration not stated)
inactive: SK-MEL-2 16.8 µM | UO-31 13.6 µM | MDA-MB-435 33.2 µM | HCT-116 22.5 µM | OVCAR-8 31.8 µM | CAKI-1 30.2 µM | SK-MEL-28 46.9 µM | CCRF-CEM 5.75 µM | Malme-3M 55.6 µM | BT-549 22.5 µM | MCF7 27.1 µM | SN12C 12.6 µM | LOX IMVI 16.3 µM | ACHN 20.9 µM | IGROV-1 35.7 µM | NCI-H23 18.9 µM | RXF 393 41.9 µM | SNB-75 47.9 µM | OVCAR-5 25.6 µM

COc1cc2c(cc1Cc1c(F)cccc1Cl)nc(-c1c(F)cccc1Cl)n2Cc1c(F)cccc1Cl
inactive: SK-MEL-2 12.6 µM | UO-31 48.4 µM | MDA-MB-435 33.1 µM | HCT-116 20 µM | OVCAR-8 36.3 µM | CAKI-1 6.07 µM | SK-MEL-28 65.6 µM | CCRF-CEM 2.1 µM | Malme-3M 20 µM | BT-549 28.8 µM | MCF7 35.2 µM | SN12C 20.9 µM | ACHN 31.8 µM | IGROV-1 32.4 µM | NCI-H23 19.8 µM | RXF 393 77.3 µM | SNB-75 24.7 µM | OVCAR-5 48.8 µM | HCC 2998 17.5 µM

Cn1c(=O)c2c(n(C)c1=O)n1c(=O)c3ccccc3nc1n2C
inactive: SK-MEL-2 > 100 µM | UO-31 > 100 µM | MDA-MB-435 > 100 µM | HCT-116 > 100 µM | OVCAR-8 97.9 µM | CAKI-1 > 100 µM | SK-MEL-28 > 100 µM | CCRF-CEM > 100 µM | BT-549 > 100 µM | MCF7 > 100 µM | SN12C > 100 µM | LOX IMVI 83.9 µM | ACHN > 100 µM | IGROV-1 > 100 µM | NCI-H23 > 100 µM | RXF 393 > 100 µM | SNB-75 39.4 µM | OVCAR-5 > 100 µM | HCC 2998 > 100 µM

Cc1cc2nc(N3C(=O)/C(=C/c4cccc([N+](=O)[O-])c4)N=C3c3ccccc3)sc2cc1C
inactive: SK-MEL-2 23.1 µM | UO-31 32.5 µM | MDA-MB-435 12.8 µM | HCT-116 23.9 µM | OVCAR-8 21.4 µM | CAKI-1 52 µM | SK-MEL-28 57.8 µM | CCRF-CEM 9.95 µM | BT-549 32.4 µM | MCF7 16.1 µM | SN12C 26.7 µM | LOX IMVI 19.2 µM | ACHN 37 µM | IGROV-1 12.5 µM | RXF 393 15.6 µM | SNB-75 6.84 µM | OVCAR-5 40.2 µM | HCC 2998 21.4 µM

N#C/C(C(=O)Nc1ccc(Cl)cc1)=C(/N)N1CCCCC1
inactive: SK-MEL-2 > 100 µM | UO-31 22.3 µM | MDA-MB-435 > 100 µM | HCT-116 99.5 µM | OVCAR-8 41.2 µM | CAKI-1 > 100 µM | SK-MEL-28 > 100 µM | CCRF-CEM > 100 µM | BT-549 > 100 µM | MCF7 > 100 µM | SN12C > 100 µM | LOX IMVI 83.4 µM | ACHN > 100 µM | IGROV-1 66.5 µM | NCI-H23 64.4 µM | SNB-75 24.7 µM | OVCAR-5 > 100 µM | HCC 2998 > 100 µM

COC(=O)c1c(C(=O)OC)c(C(c2ccccc2)c2ccccc2)n(-c2ccccc2)c1Cl
inactive: UO-31 3.81 µM | MDA-MB-435 7.16 µM | HCT-116 3.7 µM | OVCAR-8 > 10 µM | CAKI-1 > 10 µM | SK-MEL-28 > 10 µM | CCRF-CEM 4.61 µM | Malme-3M 5.79 µM | BT-549 7.16 µM | MCF7 7.76 µM | SN12C > 10 µM | ACHN 6.25 µM | IGROV-1 > 10 µM | NCI-H23 6.76 µM | RXF 393 > 10 µM | OVCAR-5 > 10 µM | HCC 2998 > 10 µM

Clc1cc2nn(C3CCCCO3)nc2cc1Cl (configuration not stated)
inactive: SK-MEL-2 > 100 µM | UO-31 > 100 µM | MDA-MB-435 > 100 µM | HCT-116 > 100 µM | OVCAR-8 > 100 µM | CAKI-1 > 100 µM | CCRF-CEM > 100 µM | Malme-3M > 100 µM | BT-549 > 100 µM | MCF7 > 100 µM | SN12C > 100 µM | ACHN > 100 µM | IGROV-1 > 100 µM | NCI-H23 > 100 µM | RXF 393 > 100 µM | SNB-75 > 100 µM | OVCAR-5 > 100 µM | HCC 2998 > 100 µM
